“And” between values parts separate entries of the source, which are not always exact repeats. Identical values can stand only once. Inconclusive results and toxic doses are left out.
Tested on: BDF1 mice, B16 melanoma ip, median survival T/C
Experiment: NCI In Vivo Anticancer Drug Screen. Data for tumor model B16 Melanoma (intraperitoneal) in B6D2F1 (BDF1) mice
Settings: endpoint: median survival time, higher = longer survival
Method in brief: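 Survival or tumor size is measured after treatment of tumor-bearing mice and normalised to the vehicle-treated control group.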

[1] = dose: 100.0 mg/kg/injection, schedule: Q01DX009 (ip), vehicle: Klucel (hydroxypropylcellulose) (HPC)
[2] = dose: 200.0 mg/kg/injection, schedule: Q01DX009 (ip), vehicle: Klucel (hydroxypropylcellulose) (HPC)
[3] = dose: 400.0 mg/kg/injection, schedule: Q01DX009 (ip), vehicle: Klucel (hydroxypropylcellulose) (HPC)
[4] = dose: 25.0 mg/kg/injection, schedule: Q01DX009 (ip), vehicle: saline
[5] = dose: 150.0 mg/kg/injection, schedule: Q01DX009 (ip), vehicle: saline
[6] = dose: 600.0 mg/kg/injection, schedule: Q01DX009 (ip), vehicle: saline
[7] = dose: 50.0 mg/kg/injection, schedule: Q01DX009 (ip), vehicle: Klucel (hydroxypropylcellulose) (HPC)
[8] = dose: 50.0 mg/kg/injection, schedule: Q01DX009 (ip), vehicle: saline with Tween-80
[9] = dose: 100.0 mg/kg/injection, schedule: Q01DX009 (ip), vehicle: saline with Tween-80

Cc1cccc(C2NC(=O)c3ccccc3N2)c1 (configuration not stated)
T/C [1]: 109 % of control
T/C [2]: 112 % of control
T/C [3]: 115 % of control

CNCC(O)c1ccc(O)cc1 (configuration not stated)
T/C [4]: 110 % of control
T/C (dose: 50.0 mg/kg/injection, schedule: Q01DX009 (ip), vehicle: saline): 115 % of control and 121 % of control
T/C (dose: 100.0 mg/kg/injection, schedule: Q01DX009 (ip), vehicle: saline): 110 % of control and 121 % of control
T/C [5]: 91 % of control
T/C (dose: 200.0 mg/kg/injection, schedule: Q01DX009 (ip), vehicle: saline): 106 % of control and 123 % of control
T/C (dose: 300.0 mg/kg/injection, schedule: Q01DX009 (ip), vehicle: saline): 94 % of control
T/C (dose: 400.0 mg/kg/injection, schedule: Q01DX009 (ip), vehicle: saline): 110 % of control
T/C [6]: 89 % of control

C[n+]1ccc(Nc2ccc(NC(=O)c3ccc(Nc4cc[n+](C)c5ccc([N+](=O)[O-])cc45)cc3)cc2)cc1
T/C (dose: 4.0 mg/kg/injection, schedule: Q01DX009 (ip), vehicle: saline): 107 % of control
T/C (dose: 8.0 mg/kg/injection, schedule: Q01DX009 (ip), vehicle: saline): 102 % of control
T/C (dose: 16.0 mg/kg/injection, schedule: Q01DX009 (ip), vehicle: saline): 107 % of control
T/C (dose: 32.0 mg/kg/injection, schedule: Q01DX009 (ip), vehicle: saline): 103 % of control

Cc1ccc(C(=O)NC2C(=O)NC(C(C)C)C(=O)N3CCCC3C(=O)N(C)CC(=O)N(C)C(C(C)C)C(=O)OC2C)c2c1Oc1c(c(C(=O)NC3C(=O)NC(C(C)C)C(=O)N4CCCC4C(=O)N(C)CC(=O)N(C)C(C(C)C)C(=O)OC3C)c3nc(-c4ccccc4)c(=O)oc3c1C)N2 (configuration not stated)
T/C (dose: 0.13 mg/kg/injection, schedule: Q04DX003 (ip), vehicle: saline + alcohol): 124 % of control
T/C (dose: 0.13 mg/kg/injection, schedule: Q04DX003 (ip), vehicle: water): 155 % of control
T/C (dose: 0.25 mg/kg/injection, schedule: Q04DX003 (ip), vehicle: saline + alcohol): 152 % of control
T/C (dose: 0.5 mg/kg/injection, schedule: Q04DX003 (ip), vehicle: saline + alcohol): 156 % of control
T/C (dose: 0.5 mg/kg/injection, schedule: Q04DX003 (ip), vehicle: water): 163 % of control
T/C (dose: 1.0 mg/kg/injection, schedule: Q04DX003 (ip), vehicle: saline + alcohol): 191 % of control
T/C (dose: 1.0 mg/kg/injection, schedule: Q04DX003 (ip), vehicle: water): 173 % of control

O=[N+]([O-])c1ccc2c(c1)Cc1cc(Br)ccc1-2
T/C (dose: 100.0 mg/kg/injection, schedule: Q04DX003 (ip), vehicle: Klucel (hydroxypropylcellulose) (HPC)): 97 % of control
T/C (dose: 200.0 mg/kg/injection, schedule: Q04DX003 (ip), vehicle: Klucel (hydroxypropylcellulose) (HPC)): 100 % of control
T/C (dose: 400.0 mg/kg/injection, schedule: Q04DX003 (ip), vehicle: Klucel (hydroxypropylcellulose) (HPC)): 100 % of control

CC(C)(O)C1OCC(C2CCC3(C)C4=CCC5C(C)(C)C(O)CCC5(C)C4CCC23C)CC1O (configuration not stated)
T/C (dose: 2.5 mg/kg/injection, schedule: Q01DX009 (ip), vehicle: Klucel (hydroxypropylcellulose) (HPC)): 102 % of control
T/C (dose: 5.0 mg/kg/injection, schedule: Q01DX009 (ip), vehicle: Klucel (hydroxypropylcellulose) (HPC)): 98 % of control
T/C (dose: 10.0 mg/kg/injection, schedule: Q01DX009 (ip), vehicle: Klucel (hydroxypropylcellulose) (HPC)): 89 % of control

CC(=O)O[C@]1(C(C)=O)CC[C@H]2[C@@H]3C[C@H](C)C4=CC(=O)CC[C@]4(C)[C@H]3CC[C@@]21C
T/C (dose: 12.5 mg/kg/injection, schedule: Q01DX009 (ip), vehicle: Klucel (hydroxypropylcellulose) (HPC)): 120 % of control
T/C (dose: 25.0 mg/kg/injection, schedule: Q01DX009 (ip), vehicle: Klucel (hydroxypropylcellulose) (HPC)): 117 % of control
T/C [7]: 100 % of control
T/C [1]: 96 % of control
T/C [2]: 89 % of control
T/C [3]: 96 % of control
T/C (dose: 800.0 mg/kg/injection, schedule: Q01DX009 (ip), vehicle: Klucel (hydroxypropylcellulose) (HPC)): 89 % of control

Cc1ccn(C(N)=O)n1
T/C [1]: 93 % of control
T/C [2]: 109 % of control

CCCC(NC(=O)C(C)Br)C(=O)O (configuration not stated)
T/C [8]: 101 % of control
T/C [9]: 87 % of control

CCCSc1ncnc2nc[nH]c12
T/C (dose: 12.5 mg/kg/injection, schedule: Q01DX009 (ip), vehicle: saline with Tween-80): 102 % of control
T/C (dose: 25.0 mg/kg/injection, schedule: Q01DX009 (ip), vehicle: saline with Tween-80): 102 % of control
T/C [8]: 97 % of control and 115 % of control
T/C [9]: 107 % of control

C[C@H]1C(=O)O[C@@H]2CCN3CC=C(COC(=O)[C@](C)(O)[C@@]1(C)O)[C@H]23
T/C [4]: 123 % of control

CNC(=S)N/N=C(\C=N\NC(=S)NC)c1ccc(C)cc1
T/C [7]: 101 % of control
T/C [1]: 90 % of control
T/C [2]: 89 % of control

Nc1ncnc2c1ncn2C1OC(CO)C(O)C1O (configuration not stated)
T/C (dose: 18.7 mg/kg/injection, schedule: Q01DX009 (ip), vehicle: saline): 96 % of control
T/C (dose: 32.0 mg/kg/injection, schedule: Q01DX009 (ip), vehicle: Klucel (hydroxypropylcellulose) (HPC)): 99 % of control and 105 % of control
T/C (dose: 37.5 mg/kg/injection, schedule: Q01DX009 (ip), vehicle: saline): 99 % of control
T/C (dose: 64.0 mg/kg/injection, schedule: Q01DX009 (ip), vehicle: Klucel (hydroxypropylcellulose) (HPC)): 98 % of control and 101 % of control
T/C (dose: 75.0 mg/kg/injection, schedule: Q01DX009 (ip), vehicle: saline): 98 % of control
T/C (dose: 128.0 mg/kg/injection, schedule: Q01DX009 (ip), vehicle: Klucel (hydroxypropylcellulose) (HPC)): 99 % of control and 101 % of control
T/C [5]: 121 % of control
T/C (dose: 256.0 mg/kg/injection, schedule: Q01DX009 (ip), vehicle: Klucel (hydroxypropylcellulose) (HPC)): 97 % of control and 98 % of control
T/C (dose: 512.0 mg/kg/injection, schedule: Q01DX009 (ip), vehicle: Klucel (hydroxypropylcellulose) (HPC)): 93 % of control and 101 % of control
T/C [6]: 123 % of control
